Values of other authors as cited in US20110104137A1, “ADJUNCTS AND COMPLEXES FOR IMPROVING HMG-CoA REDUCTASE INHIBITOR (STATIN) AND SELECTIVE PHOSPHODIESTERASE 5 INHIBITOR THERAPY” (ChronoRX LLC, an Alaska Limited Liability Company, priority 2009, published 2011).
Each block holds one molecule with its values, some of them ahead of it.

Experiments:
[1] = rosuvastatin 40 mg/d
ADMA = conditions: in vivo
[2] = no hyperlipidemia, elevated high-sensitivity CRP
[3] = in vivo
[4] = oral L-CAR; placebo group 26.0%
Lp(a) = conditions: patients with otherwise elevated levels
CETP = molecular target: T1, CETP (Homo sapiens, UniProt P11597)
T1 construct: Circulating CETP mediates the transfer of cholesteryl esters from HDL to LDL; host or cells: patients (endogenous plasma CETP, in vivo)
T1 sequence (P11597 18-493): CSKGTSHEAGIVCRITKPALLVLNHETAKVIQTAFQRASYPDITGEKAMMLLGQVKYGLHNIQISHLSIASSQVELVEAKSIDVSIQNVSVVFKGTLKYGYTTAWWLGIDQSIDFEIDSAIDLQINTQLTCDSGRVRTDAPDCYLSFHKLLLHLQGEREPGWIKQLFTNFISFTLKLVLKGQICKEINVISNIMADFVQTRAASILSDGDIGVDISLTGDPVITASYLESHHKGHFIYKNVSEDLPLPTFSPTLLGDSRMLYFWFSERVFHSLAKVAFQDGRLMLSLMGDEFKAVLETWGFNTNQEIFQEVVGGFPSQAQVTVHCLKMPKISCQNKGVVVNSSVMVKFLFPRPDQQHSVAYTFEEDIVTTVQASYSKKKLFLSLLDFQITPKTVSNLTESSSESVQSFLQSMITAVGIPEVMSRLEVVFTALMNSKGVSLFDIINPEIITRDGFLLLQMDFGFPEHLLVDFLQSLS

NF-kappaB = conditions: in vitro and ex-vivo
[5] = 12 months, IVUS
[6] = atorvastatin 80 mg versus pravastatin 40 mg, after ACS
PGI2 = conditions: administered therapeutic dose, humans
[7] = monotherapy and in combination with a statin

Structure (SMILES): CC(=O)O[C@H](CC(=O)[O-])C[N+](C)(C)C [L-CAR, Acetyl-L-carnitine]
total cardiac events, including cardiac death and nonfatal infarction [4]: 15.6% | plasma Lp(a) (Lp(a)): reduce plasma Lp(a)

Structure (SMILES): CCOC(=O)N1c2ccc(C(F)(F)F)cc2[C@@H](N(Cc2cc(C(F)(F)F)cc(C(F)(F)F)c2)C(=O)OC)C[C@H]1CC [torcetrapib]
mortality (CETP; mean follow-up of 550 days, cardiovascular and noncardiovascular causes): significant increase in mortality | HDL-CHOL levels (CETP; [7]): markedly increased HDL-CHOL levels | LDL-CHOL (CETP; [7]): reduced LDL-CHOL | mean particle size of HDL and LDL (CETP; [7]): increased the mean particle size of both HDL and of LDL

Structure (SMILES): O=C(O)CCCCC1CCSS1 (stereo not shown) [LA, 1,2-dithiolane-3-pentanoic acid]
NF-kappaB activation (NF-kappaB): inhibits NF-kappaB activation

The next lines start with results.

interaction with warfarin [3]: potentiate warfarin
Structure (SMILES): CC(C)c1nc(N(C)S(C)(=O)=O)nc(-c2ccc(F)cc2)c1/C=C/[C@@H](O)C[C@@H](O)CC(=O)O [rosuvastatin]
average LDL achieved ([1]; 349 patients): 60.8 mg/dL | increase in HDL ([1]; 349 patients): 14.7% | regression of atherosclerosis ([1]; intravascular ultrasound): significant regression of atherosclerosis | effect on plasma ADMA (ADMA): decrease in plasma ADMA | incidence of major cardiovascular events [2]: significantly reduced the incidence of major cardiovascular events

interaction with warfarin [3]: potentiate warfarin
Structure (SMILES): CC[C@H](C)C(=O)O[C@H]1C[C@@H](C)C=C2C=C[C@H](C)[C@H](CC[C@@H]3C[C@@H](O)CC(=O)O3)[C@H]21 [lovastatin]

interaction with warfarin [3]: potentiate warfarin
Structure (SMILES): CC(C)c1c(C(=O)Nc2ccccc2)c(-c2ccccc2)c(-c2ccc(F)cc2)n1CC[C@@H](O)C[C@@H](O)CC(=O)O [atorvastatin]
progression of mean plaque volume or thickness ([5]; 131 patients, placebo 9.6): 1.2 mm^3 | hyperechogenicity of the plaque ([5]; compared to placebo): increased the hyperechogenicity of the plaque | rate of hospitalization for HF [6]: significantly reduced the rate of hospitalization for HF | PGI2 signaling (PGI2): does not significantly decrease PGI2 signaling
